Measurements as given in US10168342B2, “Lipid probes and uses thereof” (THE SCRIPPS RESEARCH INSTITUTE, priority 2015, dated 2019).
Read-outs that look alike come from different tables or passages of the source.

Key:
[1] = biological target: T1, AEA-DA lipid probe targets in Neuro2a cells (Mus musculus, UniProt Q6GV12)
T1 sequence (Q6GV12 26-332): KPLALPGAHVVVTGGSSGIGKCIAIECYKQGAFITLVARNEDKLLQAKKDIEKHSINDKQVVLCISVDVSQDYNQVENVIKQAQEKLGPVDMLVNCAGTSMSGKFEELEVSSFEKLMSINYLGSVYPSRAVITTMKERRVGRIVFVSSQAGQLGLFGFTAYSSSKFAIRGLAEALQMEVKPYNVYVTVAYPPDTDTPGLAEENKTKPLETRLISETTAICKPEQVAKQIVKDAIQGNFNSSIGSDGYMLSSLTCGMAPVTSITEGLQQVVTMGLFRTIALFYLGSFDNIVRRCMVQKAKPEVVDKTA

[2] = biological target: T2, AEA-DA lipid probe targets in Neuro2a cells (Mus musculus, UniProt Q9ES97)
T2 sequence (Q9ES97 1-964): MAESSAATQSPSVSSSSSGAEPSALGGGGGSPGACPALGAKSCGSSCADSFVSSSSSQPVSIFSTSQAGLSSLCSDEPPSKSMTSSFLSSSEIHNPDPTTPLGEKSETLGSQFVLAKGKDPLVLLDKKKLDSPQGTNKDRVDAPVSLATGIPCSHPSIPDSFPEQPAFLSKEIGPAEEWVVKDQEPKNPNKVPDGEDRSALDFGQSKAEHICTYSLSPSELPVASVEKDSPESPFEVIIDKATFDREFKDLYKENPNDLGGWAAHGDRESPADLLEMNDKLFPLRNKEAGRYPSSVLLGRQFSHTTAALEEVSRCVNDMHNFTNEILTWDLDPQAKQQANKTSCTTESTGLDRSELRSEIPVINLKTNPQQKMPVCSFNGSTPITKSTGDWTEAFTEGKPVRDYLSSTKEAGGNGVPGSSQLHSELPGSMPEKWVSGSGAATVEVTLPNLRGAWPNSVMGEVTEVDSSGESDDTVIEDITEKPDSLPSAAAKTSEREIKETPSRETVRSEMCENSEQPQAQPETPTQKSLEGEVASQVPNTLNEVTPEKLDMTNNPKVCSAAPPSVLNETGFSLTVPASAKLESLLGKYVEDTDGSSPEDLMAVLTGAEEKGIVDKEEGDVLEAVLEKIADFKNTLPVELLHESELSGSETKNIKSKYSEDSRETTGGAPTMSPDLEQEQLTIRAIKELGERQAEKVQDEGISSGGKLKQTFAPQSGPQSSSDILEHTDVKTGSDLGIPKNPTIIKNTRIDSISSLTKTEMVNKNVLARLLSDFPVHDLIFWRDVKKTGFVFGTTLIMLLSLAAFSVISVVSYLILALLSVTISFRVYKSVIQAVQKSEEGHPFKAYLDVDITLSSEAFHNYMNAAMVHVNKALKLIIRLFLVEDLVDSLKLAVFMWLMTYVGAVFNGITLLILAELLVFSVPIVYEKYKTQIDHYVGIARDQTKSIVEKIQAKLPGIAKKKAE

[3] = biological target: T3, AEA-DA lipid probe targets in Neuro2a cells (Mus musculus, UniProt P57776)
T3 sequence (P57776 1-281): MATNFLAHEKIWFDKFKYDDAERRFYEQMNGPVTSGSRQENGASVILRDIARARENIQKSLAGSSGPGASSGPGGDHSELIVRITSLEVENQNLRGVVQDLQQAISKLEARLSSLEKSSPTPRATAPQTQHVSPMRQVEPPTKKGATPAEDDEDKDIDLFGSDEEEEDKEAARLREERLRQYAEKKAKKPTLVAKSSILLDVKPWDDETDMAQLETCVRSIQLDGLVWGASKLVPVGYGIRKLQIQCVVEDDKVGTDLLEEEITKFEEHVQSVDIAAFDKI

[4] = biological target: AEA-DA lipid probe targets in Neuro2a cells (Mus musculus, UniProt Q9D771)
[5] = biological target: T4, AEA-DA lipid probe targets in Neuro2a cells (Mus musculus, UniProt P43883)
T4 sequence (P43883 1-425): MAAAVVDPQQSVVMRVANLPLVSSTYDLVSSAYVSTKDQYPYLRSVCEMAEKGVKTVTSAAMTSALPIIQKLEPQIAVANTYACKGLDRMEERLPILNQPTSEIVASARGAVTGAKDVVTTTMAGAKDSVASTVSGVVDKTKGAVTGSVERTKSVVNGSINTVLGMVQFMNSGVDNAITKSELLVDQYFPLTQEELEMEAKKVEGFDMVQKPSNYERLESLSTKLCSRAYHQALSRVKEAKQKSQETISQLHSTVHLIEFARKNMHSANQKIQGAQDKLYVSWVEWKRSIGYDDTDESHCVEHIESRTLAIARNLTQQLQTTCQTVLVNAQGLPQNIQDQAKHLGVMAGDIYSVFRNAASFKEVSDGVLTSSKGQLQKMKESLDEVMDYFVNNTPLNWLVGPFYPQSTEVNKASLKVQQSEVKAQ

[6] = biological target: T5, AEA-DA lipid probe targets in Neuro2a cells (Mus musculus, UniProt Q8R404)
T5 sequence (Q8R404 1-119): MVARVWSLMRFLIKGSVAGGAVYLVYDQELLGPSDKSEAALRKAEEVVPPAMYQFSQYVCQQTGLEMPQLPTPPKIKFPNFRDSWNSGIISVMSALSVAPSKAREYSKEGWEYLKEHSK

[7] = biological target: T6, AEA-DA lipid probe targets in Neuro2a cells (Mus musculus, UniProt Q9Z2Z6)
T6 sequence (Q9Z2Z6 1-301): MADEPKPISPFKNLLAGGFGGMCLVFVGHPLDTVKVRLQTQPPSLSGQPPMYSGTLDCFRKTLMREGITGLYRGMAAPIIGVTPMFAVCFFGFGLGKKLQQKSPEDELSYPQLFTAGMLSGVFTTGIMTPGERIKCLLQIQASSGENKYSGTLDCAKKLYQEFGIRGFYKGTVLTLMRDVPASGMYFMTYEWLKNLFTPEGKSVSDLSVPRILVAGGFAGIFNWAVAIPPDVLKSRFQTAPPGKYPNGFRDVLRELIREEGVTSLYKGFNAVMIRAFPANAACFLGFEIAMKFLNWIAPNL

Sequence of AEA-DA lipid probe targets in Neuro2a cells (Mus musculus, UniProt Q9D771) (Q9D771 whole entry): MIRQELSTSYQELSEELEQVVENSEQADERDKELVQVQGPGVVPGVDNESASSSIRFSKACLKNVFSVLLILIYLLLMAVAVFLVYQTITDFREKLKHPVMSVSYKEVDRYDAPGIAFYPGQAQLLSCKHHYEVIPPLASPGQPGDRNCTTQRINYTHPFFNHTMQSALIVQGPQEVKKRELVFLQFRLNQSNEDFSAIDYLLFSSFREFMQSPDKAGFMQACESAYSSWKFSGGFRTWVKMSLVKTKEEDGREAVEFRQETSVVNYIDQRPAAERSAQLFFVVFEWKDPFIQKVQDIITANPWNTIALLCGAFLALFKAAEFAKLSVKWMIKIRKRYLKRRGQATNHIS

SMILES: CCCCC/C=C\C/C=C\C/C=C\C/C=C\CCCC(=O)NCCO [AEA, anandamide, reference compound]
- SILAC ratio, Kdsr ([1]; competitor 200 μM): 3.6
- SILAC ratio, Rtn3 ([2]; competitor 200 μM): 2.7
- SILAC ratio Eef1d ([3]; competitor 200 μM): 1.1
- SILAC ratio Tmem206 ([4]; competitor 200 μM): 1.2
- SILAC ratio, Plin2 ([5]; competitor 200 μM): 1.4
- SILAC ratio, Qil1 ([6]; competitor 200 μM): 1.9
- SILAC ratio Slc25a20 ([7]; competitor 200 μM): 1.6

SMILES: O=C(/C=C/c1cccnc1)NCCCCC1CCN(C(=O)c2ccccc2)CC1 [FK-866, reference compound]
- SILAC ratio, Kdsr ([1]; competitor 25 μM): 1.1
- SILAC ratio, Rtn3 ([2]; competitor 25 μM): 1.1
- SILAC ratio Eef1d ([3]; competitor 25 μM): 1.2
- SILAC ratio Tmem206 ([4]; competitor 25 μM): 0.9
- SILAC ratio, Plin2 ([5]; competitor 25 μM): 1.0
- SILAC ratio, Qil1 ([6]; competitor 25 μM): 1.2
- SILAC ratio Slc25a20 ([7]; competitor 25 μM): 1.4

SMILES: CN1CCN(C(=O)c2c(-c3ccccc3)c3cc([N+](=O)[O-])ccc3n2C)CC1 [KML110, (1-Methyl-5-nitro-3-phenyl-1H-indol-2-yl)(4-methylpiperazin-1-yl)methanone]
- SILAC ratio, Kdsr ([1]; competitor 25 μM): 1.6
- SILAC ratio, Rtn3 ([2]; competitor 25 μM): 1.3
- SILAC ratio Eef1d ([3]; competitor 25 μM): 1.4
- SILAC ratio Tmem206 ([4]; competitor 25 μM): 1.2
- SILAC ratio, Plin2 ([5]; competitor 25 μM): 2.7
- SILAC ratio, Qil1 ([6]; competitor 25 μM): 1.5
- SILAC ratio Slc25a20 ([7]; competitor 25 μM): 1.5

SMILES: CN1CCN(C(=O)c2[nH]c3ccc([N+](=O)[O-])cc3c2-c2ccccc2)CC1 [MJN228, (4-Methylpiperazin-1-yl)(5-nitro-3-phenyl-1H-indol-2-yl)methanone]
- SILAC ratio, Kdsr ([1]; competitor 10 μM): 1.1
- SILAC ratio, Kdsr ([1]; competitor 25 μM): 1.5
- SILAC ratio, Kdsr ([1]; competitor 50 μM): 1.3
- SILAC ratio, Kdsr ([1]; competitor 100 μM): 1.7
- SILAC ratio, Rtn3 ([2]; competitor 10 μM): 1.2
- SILAC ratio, Rtn3 ([2]; competitor 25 μM): 1.4
- SILAC ratio, Rtn3 ([2]; competitor 50 μM): 1.4
- SILAC ratio, Rtn3 ([2]; competitor 100 μM): 1.7
- SILAC ratio Eef1d ([3]; competitor 25 μM): 1.3
- SILAC ratio Eef1d ([3]; competitor 100 μM): 1.4
- SILAC ratio Tmem206 ([4]; competitor 10 μM): 1.1
- SILAC ratio Tmem206 ([4]; competitor 25 μM): 1.3
- SILAC ratio Tmem206 ([4]; competitor 100 μM): 0.7
- SILAC ratio, Plin2 ([5]; competitor 10 μM): 1.8
- SILAC ratio, Plin2 ([5]; competitor 25 μM): 3.2
- SILAC ratio, Plin2 ([5]; competitor 50 μM): 20.0
- SILAC ratio, Plin2 ([5]; competitor 100 μM): 20.0
- SILAC ratio, Qil1 ([6]; competitor 10 μM): 1.2
- SILAC ratio, Qil1 ([6]; competitor 25 μM): 1.5
- SILAC ratio, Qil1 ([6]; competitor 50 μM): 1.7
- SILAC ratio, Qil1 ([6]; competitor 100 μM): 2.5
- SILAC ratio Slc25a20 ([7]; competitor 10 μM): 1.4
- SILAC ratio Slc25a20 ([7]; competitor 25 μM): 1.4
- SILAC ratio Slc25a20 ([7]; competitor 50 μM): 2.4
- SILAC ratio Slc25a20 ([7]; competitor 100 μM): 3.4

SMILES: C=CCN(C)CCCCCCOc1ccc(C(=O)c2ccc(Br)cc2)c(F)c1 [Ro 48-8071, reference compound]
- SILAC ratio, Kdsr ([1]; competitor 25 μM): 1.6
- SILAC ratio, Rtn3 ([2]; competitor 25 μM): 1.2
- SILAC ratio Eef1d ([3]; competitor 25 μM): 0.9
- SILAC ratio Tmem206 ([4]; competitor 25 μM): 0.6
- SILAC ratio, Plin2 ([5]; competitor 25 μM): 1.8
- SILAC ratio, Qil1 ([6]; competitor 25 μM): 1.2
- SILAC ratio Slc25a20 ([7]; competitor 25 μM): 1.2
